Legend:
MCF-7 cells = assay: Cell viability assay: MTT test; assay type: cell-based, human; details: for minimal effective concentration: Homo sapiens, MCF7, 72 h treatment, tested at 1, 5, 10, 20, 40 µM, p<0.05 vs untreated, read-out: concentration(s) giving significant reduction in the viability of MCF-7 cells
MDA-MB-231 cells = assay: Cell viability assay: MTT test; assay type: cell-based; details: for minimal effective concentration: Homo sapiens, MDA-MB-231, 72 h treatment, tested at 1, 5, 10, 20, 40 µM, p<0.05 vs untreated, read-out: concentration(s) giving significant reduction in the viability of MDA-MB-231 cells
MDA-MB-468 cells = assay: Cell viability assay: MTT test; assay type: cell-based; details: for minimal effective concentration: Homo sapiens, MDA-MB-468, 72 h treatment, tested at 1, 5, 10, 20, 40 µM, p<0.05 vs untreated, read-out: concentration(s) giving significant reduction in the viability of MDA-MB-468 cells
MCF-10A cells = assay: Cell viability assay: MTT test, non-tumour cells; assay type: cell-based, human; details: 72 h treatment; for reduction in cell viability of MCF-10A cells (in words): 1-40 µM; for concentration(s) giving inhibitory effect on viability of MCF-10A cells: tested at 1, 5, 10, 20, 40 µM
Protocol: (§1) All cell lines were obtained from the American Type Culture Collection (ATCC, Manassas, VA, USA). The human mammary adenocarcinoma cells (MCF-7) were cultured in DMEM-F12 (Dulbecco's Modified Eagle's Medium (DME) and Ham's F-12 Nutrient Mixture) containing 5% newborn calf serum (NCS), 1% glutamine, 1% penicillin/streptomycin (Sigma-Aldrich, Milan, Italy). The TNBC cells (MDA-MB-231 and MDA-MB-468) were cultured in DMEM-F12 containing 10% heat-inactivated foetal bovine serum (FBS), 1% glutamine, 1% penicillin/streptomycin (Sigma-Aldrich, Milan, Italy). The 3T3L- cells 1 (immortalised mouse fibroblasts) were cultured in DMEM (Dulbecco's Modified Eagle's medium) containing 10% heat-inactivated foetal bovine serum (FBS) and 1% penicillin/streptomycin (Sigma-Aldrich, Milan, Italy). The human mammary epithelial cells MCF-10A were maintained in DMEM-F12 with 5% horse serum (HS), 1% glutamine, 1% penicillin/streptomycin, 5 µg/ml of insulin, 0.25 mg/ml of hydrocortisone, 20 ng/ml of hEGF (human epidermal growth factor) and 0.05 mg/ml of cholera enterotoxin (Sigma-Aldrich, Milan, Italy).
(§2) All cell lines were maintained at 37°C in a 5% CO2 humidified atmosphere and periodically screened for mycoplasma contamination.
(§3) Cell viability was evaluated using a colorimetric assay which exploits the conversion, by the mitochondrial enzyme succinate dehydrogenase (SDH), of the bromide reagent of 3-(4,5-dimethylthiazol-2-il)-2,5-diphenyltetrazole (MTT) (Sigma-Aldrich, Milan, Italy) into crystals of a product called formazan (blue-coloured).
(§4) The cells were seeded in 48-well plates (25,000 cells/well), cultured for 72h in a complete medium before being treated for 72h with different doses (1, 5, 10, 20, 40 µM) of compounds A1, A2, A3, A4 and A5. At the end of the treatment the cells were incubated in darkness for 3h with 50 µl of a solution of MTT in PBS (2 mg/ml). The MTT solution was then carefully removed and the formazan salts that had formed were solubilised by adding 200 µl of DMSO (dimethyl sulphoxide) (Sigma-Aldrich, Milan, Italy), which imparts a pinkish colour to the solution. The coloured product was detected with the spectrophotometric method, by reading absorbance at the wavelength of 570 nm.
(§5) Cell viability was evaluated with the MTT colorimetric assay as described above.

3T3-L1 cells = assay: Cell viability assay: MTT test, non-tumour cells; assay type: cell-based, mouse; details: 72 h treatment; for reduction in cell viability of 3T3-L1 cells (in words): 1-40 µM; for concentration(s) giving inhibitory effect on viability of 3T3-L1 cells: tested at 1, 5, 10, 20, 40 µM
Protocol: as §1, §2, §3, §4, §5

parp-1 protein = assay: Western blot analysis of cleavage/inactivation of parp-1; assay type: cell-based, human; details: 20 µM, 48h
Protocol: The MCF-7, MDA-MB-231 and MDA-MB-468 cells were cultured in a complete medium for 72h in 60 mm plates (1 x 10^6 cells) before being treated for 48h with compound A4 (20 µM). After the treatment the cells were lysed in ice with RIPA (Radio-Immune Precipitation Assay) buffer (50 mM Tris HCI, pH 8.0, 150 mM NaCl, 1% NP-40, 0.5% sodium deoxycholate, 0.1% SDS, sodium dodecyl sulphate), containing protease inhibitors (1 mM phenylmethylsulphonyl fluoride (PMSF), 1mM sodium orthovanadate, 20 µM aprotinin, 20 µM leupeptin) for protein extraction. The lysates were maintained under ice for 10 minutes, then centrifuged for 10 minutes at 13000 rpm at 4°C. The protein content present in the supernatant was determined spectrophotometrically using the Bradford method. The proteins were separated, based on their molecular weight, in a sodium dodecyl sulphate-polyacrylamide gel (12%) (SDS-PAGE) and then transferred onto a nitrocellulose membrane. […]
In order to be able to visualise the interaction between the primary antibody and the protein of interest, the membranes were incubated for 1 hour at room temperature, after washing with TBS-T 1X three times in order to remove any traces of the primary antibody, with a specific secondary antibody conjugated to the enzyme horseradish peroxidase (HRP) and directed against the constant portion of the primary antibody. […] In order to normalise the result, the various membranes were hot stripped for 30 minutes at 50°C with a stripping buffer (62.5 mM Tris-HCI pH 6.7, 2% SDS, 100mM β-mercaptoethanoi) and re-incubated overnight with the antibody anti-glyceraldehyde 3-phosphate dehydrogenase (GAPDH) (1: 1000) (Santa Cruz Biotechnology, Santa Cruz, CA, USA) used as a control for the quantities of proteins loaded.

bcl-2 protein = assay: Western blot analysis of expression of anti-apoptotic bcl-2; assay type: cell-based, human; details: 20 µM, 48h
Protocol: (§6) A further confirmation of the ability of the compound of formula A4 to induce the death, by apoptosis, of MCF-7, MDA-MB231 and MDA-MB468 tumour cells was given by the evaluation, through western blot analysis, of its effect on the expression of the anti-apoptotic bcl-2 protein and on the appearance of cytochrome c in the cytosolic compartment.
(§7) The cells were cultured in a complete medium for 72 h in 60 mm plates (1 x 10^6 cells) before being treated for 48h with compound A4 (20 µM) in order to evaluate the protein expression of bcl-2 and the expression of the cytochrome c present in the cytosolic protein fraction.
For an analysis of the protein expression of bcl-2, after treatment the cells were lysed in ice with RIPA (Radio-Immune Precipitation Assay) buffer (50 mM Tris HCI, pH 8.0, 150 mM NaCl, 1% NP-40, 0.5% sodium deoxycholate, 0.1% SDS, sodium dodecyl sulphate), containing protease inhibitors (1 mM phenylmethylsulphonyl fluoride (PMSF), 1mM sodium orthovanadate, 20 µM aprotinin, 20 µM leupeptin) for protein extraction. The lysates were maintained under ice for 10 minutes, then centrifuged for 10 minutes at 13000 rpm at 4°C. The protein content present in the supernatant was determined spectrophotometrically using the Bradford method. The proteins were separated, based on their molecular weight, in a sodium dodecyl sulphate-polyacrylamide gel (12%) (SDS-PAGE) and then subjected to a western blot analysis as described above, using a specific primary anti-bcl-2 antibody (1:500) (Santa Cruz Biotechnology, Santa Cruz, CA, USA).

cytochrome c = assay: Western blot analysis of cytochrome c in the cytosolic protein fraction; assay type: cell-based, human; details: 20 µM, 48h
Protocol: as §6, §7
For the purpose of analysing the protein expression of the cytochrome c present in the cytosolic fraction, after treatment the cells were collected by centrifugation at 2500 rpm for 10 minutes at 4°C. The pellets were resuspended in 50 µl of sucrose buffer (250 mM sucrose, 10 mM Hepes, 10 mM KCl, 1.5 mM MgCl2, 1 mM EDTA, 1 mM EGTA) (Sigma-Aldrich, Milan, Italy) containing 20µM of aprotinin, 20 µM of leupeptin, 1mM of PMSF and 0.05% of digitonin (Sigma-Aldrich, Milan, Italy).
The cells were incubated for 20 minutes at 4°C and then centrifuged at 13000 rpm for 15 minutes at 4°C. The protein content present in the supernatant was determined spectrophotometrically using the Bradford method. The proteins were separated, based on their molecular weight, in a sodium dodecyl sulphate-polyacrylamide gel (15%) (SDS-PAGE) and then subjected to a western blot analysis as described above, using a specific primary anti-cytochrome c antibody (1:1000) (Santa Cruz Biotechnology, Santa Cruz, CA, USA).

Compound | minimal effective concentration (MCF-7 cells) | minimal effective concentration (MDA-MB-231 cells) | minimal effective concentration (MDA-MB-468 cells) | reduction in cell viability of MCF-10A cells (in words) (MCF-10A cells) | concentration(s) giving inhibitory effect on viability of MCF-10A cells (MCF-10A cells) | reduction in cell viability of 3T3-L1 cells (in words) (3T3-L1 cells) | concentration(s) giving inhibitory effect on viability of 3T3-L1 cells (3T3-L1 cells) | cleavage of the parp-1 protein (parp-1 protein; MCF-7 cells) | cleavage of the parp-1 protein (parp-1 protein; MDA-MB-231 cells) | cleavage of the parp-1 protein (parp-1 protein; MDA-MB-468 cells) | expression of bcl-2 (bcl-2 protein; MCF-7 cells) | expression of bcl-2 (bcl-2 protein; MDA-MB-231 cells) | expression of bcl-2 (bcl-2 protein; MDA-MB-468 cells) | level of cytochrome c in the cytosolic fraction (cytochrome c; MCF-7 cells) | level of cytochrome c in the cytosolic fraction (cytochrome c; MDA-MB-231 cells) | level of cytochrome c in the cytosolic fraction (cytochrome c; MDA-MB-468 cells) | effect on the viability of MCF-7 cells (in words) (MCF-7 cells; 72 h treatment, 1-40 µM) | effect on the viability of MDA-MB-231 cells (in words) (MDA-MB-231 cells; 72 h treatment, 1-40 µM) | effect on the viability of MDA-MB-468 cells (in words) (MDA-MB-468 cells; 72 h treatment, 1-40 µM)
CC1(C)CC2(C)OC(=O)C(c3ccccc3)=C2O1 (stereo not shown) [Compound A1, 5,5,6a-trimethyl-3-phenyl-6,6a-dihydrofuro[3,2-b]furan-2(5H)-one] | ≥ 10 µM | ≥ 10 µM | ≥ 5 µM | more substantial | ≥ 20 µM | more substantial | 40 µM |  |  |  |  |  |  |  |  |  |  |  | 
CC1(C)CC2(C)OC(=O)C([Si](C)(C)C)=C2O1 (stereo not shown) [Compound A2, 5,5,6a-trimethyl-3-(trimethylsilyl)-6,6a-dihydrofuro[3,2-b]furan-2(5H)-one] | ≥ 1 µM | ≥ 1 µM | ≥ 1 µM | modest | ≥ 5 µM | modest | ≥ 20 µM |  |  |  |  |  |  |  |  |  |  |  | 
CC12CCOC1=C([Si](C)(C)C)C(=O)O2 (stereo not shown) [Compound A3, 6a-methyl-3-(trimethylsilyl)-6,6a-dihydrofuro[3,2-b]furan-2(5H)-one] | ≥ 10 µM | ≥ 5 µM | ≥ 5 µM | more substantial | ≥ 10 µM | more substantial | 40 µM |  |  |  |  |  |  |  |  |  |  |  | 
CC1(C)CC2(c3ccccc3)OC(=O)C([Si](C)(C)C)=C2O1 (stereo not shown) [Compound A4, 5,5-dimethyl-6a-phenyl-3-(trimethylsilyl)-6,6a-dihydrofuro[3,2-b]furan-2(5H)-one] | 1 to 40 µM | 10 to 40 µM | 10 to 40 µM | not influenced |  | not influenced |  | the cleaved form of the parp-1 protein may be seen | the cleaved form of the parp-1 protein may be seen | the cleaved form of the parp-1 protein may be seen | decreasing the expression of bcl-2 | decreasing the expression of bcl-2 | decreasing the expression of bcl-2 | increased to a significant degree | increased to a significant degree | increased to a significant degree |  |  | 
CC1(C)CC2(c3ccccc3)OC(=O)C=C2O1 (stereo not shown) [Compound A5, 5,5-dimethyl-6a-phenyl-6,6a-dihydrofuro[3,2-b]furan-2(5H)-one] | 5 to 40 µM | 20 to 40 µM | 10 to 40 µM | not influenced |  | not influenced |  |  |  |  |  |  |  |  |  |  | modest but significant effect | modest but significant effect | slightly more effective

— patent EP3428169A1, “6,6A-DIHYDRO FURO[3,2-B]FURAN-2-(5H)ONE DERIVATIVES, THEIR PREPARATION AND USE FOR TREATING TUMORS” (Universita' Della Calabria, priority 2017, dated 2019)
